Assay results as given in PubChem BioAssay (NCI).
“And” between values parts separate entries of the source, which are not always exact repeats. Equal entries are not always repeated.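 Assay format: 96-well plates, 48-hour exposure. GI50 is the concentration that inhibits growth by half. TGI: concentration producing complete growth inhibition.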

What was measured:
Assay in all cases: NCI-60 cell line screen, 48 h
786-0 renal = tested on: 786-0 renal
HT29 colon = tested on: HT29 colon
K-562 leukemia = tested on: K-562 leukemia
MDA-MB-435 = tested on: MDA-MB-435
MOLT-4 leukemia = tested on: MOLT-4 leukemia
OVCAR-4 ovarian = tested on: OVCAR-4 ovarian
SNB-75 CNS = tested on: SNB-75 CNS
SR leukemia = tested on: SR leukemia
SW-620 colon = tested on: SW-620 colon
UO-31 renal = tested on: UO-31 renal

| Compound | GI50 (786-0 renal) | TGI (786-0 renal) | GI50 (HT29 colon) | TGI (HT29 colon) | GI50 (K-562 leukemia) | TGI (K-562 leukemia) | GI50 (MDA-MB-435) | TGI (MDA-MB-435) | GI50 (MOLT-4 leukemia) | TGI (MOLT-4 leukemia) | GI50 (OVCAR-4 ovarian) | TGI (OVCAR-4 ovarian) | GI50 (SNB-75 CNS) | TGI (SNB-75 CNS) | GI50 (SR leukemia) | GI50 (SW-620 colon) | TGI (SW-620 colon) | GI50 (UO-31 renal) | TGI (UO-31 renal) | TGI (SR leukemia) |
| --- | --- | --- | --- | --- | --- | --- | --- | --- | --- | --- | --- | --- | --- | --- | --- | --- | --- | --- | --- | --- |
| O=C(Nc1cc(C(F)(F)F)cc(C(F)(F)F)c1)c1cc(Cl)ccc1O | 0.269 µM and 0.293 µM | 0.881 µM and 1.15 µM | 0.339 µM and 0.401 µM | > 10 µM and 12 µM | 0.189 µM and 0.161 µM | > 61.3 µM | 0.288 µM and 0.284 µM | 1.31 µM and 1.61 µM | 0.269 µM and 0.332 µM | 0.845 µM and 2.69 µM | 0.294 µM and 0.288 µM | > 10 µM and 13.4 µM | 0.159 µM and 0.172 µM | 0.586 µM | 0.218 µM and 0.228 µM | 0.316 µM and 0.312 µM | 3.26 µM and 10.4 µM | 0.246 µM and 0.224 µM | 0.856 µM and 0.811 µM |  |
| CN(C)C1CCN(C(=O)c2ccc(NC(=O)Nc3ccc(-c4nc(N5CCOCC5)c5cccn5n4)cc3)cc2)CC1 | 0.31 µM | 6.36 µM | 0.0558 µM | 3.78 µM | 0.224 µM | 9.66 µM | 0.0403 µM | 0.492 µM | 0.0457 µM | 2.52 µM | 0.0137 µM | 0.0721 µM | 0.0138 µM | 0.0711 µM | 0.0562 µM | 0.128 µM | 11.8 µM | 1.15 µM | 10.1 µM | > 54 µM |
| O=c1c(F)cn(Cc2ccc(C34CC5CC(CC(C5)C3)C4)c(O)c2)c(=O)n1Cc1ccc(C23CC4CC(CC(C4)C2)C3)c(O)c1 | 11.8 µM | 28.3 µM | 13.9 µM | 29.9 µM | 5.29 µM | > 100 µM | 14.4 µM | 29.2 µM | 5.85 µM | 44.4 µM | 14.8 µM | 30.8 µM | 15.1 µM | 30 µM | 7.17 µM | 10.7 µM | 26.4 µM | 17.5 µM | 41.4 µM | 26.5 µM |
| COc1cc(C(=O)N2CCN(C(=O)c3cc(OC)c(OC)c(OC)c3)C2=S)cc(OC)c1OC | 11.4 µM | 26.8 µM | 22.7 µM | 53.2 µM | 24.9 µM | > 100 µM | 13.1 µM | 28.8 µM | 23.5 µM | 58.4 µM | 16.9 µM | 50.1 µM | 7.1 µM | 21.6 µM |  | 20.3 µM | 46.5 µM |  | 12.8 µM |  |
| COc1cc(N(CCC#N)CCC#N)ccc1/C(N=Nc1ccc(Cl)cc1)=N/NC(=O)c1cc(Br)ccc1O | 77.1 µg/mL | > 150 µg/mL | 45.5 µg/mL | > 150 µg/mL | 86.4 µg/mL | > 150 µg/mL | > 150 µg/mL | > 150 µg/mL | 32.9 µg/mL | > 150 µg/mL | 11.1 µg/mL | 37 µg/mL | 25 µg/mL | 95.1 µg/mL | 96.3 µg/mL | > 150 µg/mL | > 150 µg/mL | 86.6 µg/mL | > 150 µg/mL | > 150 µg/mL |
| CCN(CC)CCNc1nc(N)c(C#N)c(C#N)c1C#N |  | > 10 µM |  | > 10 µM |  | > 10 µM |  | > 10 µM |  | > 10 µM |  | > 10 µM |  | > 10 µM |  |  | > 10 µM |  | > 10 µM |  |
| COc1ccc2nc3ccccc3c(NCc3ccc(F)cc3)c2c1 | 1.87 µM | 6.82 µM | 1.48 µM | 5.19 µM | 1.52 µM | 6.94 µM | 2.14 µM | 8.26 µM | 1.66 µM | 10.4 µM | 2.27 µM | 8.23 µM | 2.46 µM | 9.2 µM | 1.79 µM | 1.63 µM | 7.03 µM | 0.962 µM | 3.96 µM | 5.75 µM |
| Clc1cc2c(c(CSc3nc4ccccc4n4cccc34)c1)OCOC2 | 51.6 µM | > 100 µM | > 100 µM | > 100 µM | > 100 µM | > 100 µM | > 100 µM | > 100 µM | > 100 µM | > 100 µM |  |  | 6.48 µM | 26.8 µM | > 100 µM | > 100 µM | > 100 µM | > 100 µM | > 100 µM | > 100 µM |
| C[C@@H]1C[C@@H]([C@@H](CC2CC(=O)NC(=O)C2)OC(=O)CC(=O)c2ccccc2)C(=O)[C@@H](C)C1 | 0.293 µM | 13.2 µM | 0.634 µM | > 100 µM | 0.682 µM | > 100 µM | 0.463 µM | > 32.6 µM | 0.494 µM | > 100 µM | 1.91 µM | > 100 µM | 0.911 µM | > 55.1 µM | 2.01 µM | 0.512 µM | > 43.1 µM | 0.159 µM | 5.1 µM | > 100 µM |
| COC(=O)c1ccc2c(c1)C(=O)c1c-2n(CCCN=[N+]=[N-])c(=O)c2cc(OC)c(OC)cc12 | > 100 µM | > 100 µM | > 100 µM | > 100 µM | > 100 µM | > 100 µM | > 100 µM | > 100 µM | 3.82 µM | 19.1 µM | > 100 µM | > 100 µM | 8.24 µM | > 100 µM | 3.57 µM | > 100 µM | > 100 µM | > 100 µM | > 100 µM | 56 µM |
| CN1C(=O)c2ccccc2NC(=O)C12O[C@@H]2c1ccccc1 (stereo partly drawn) |  | > 100 µM |  | > 100 µM |  |  |  | > 100 µM |  | > 100 µM |  | > 100 µM |  | > 100 µM |  |  | > 100 µM |  | > 100 µM | > 100 µM |
| COc1ccc(-c2nnc3n(C)c(=O)c4ccccc4n23)cc1N | 3.72 µM | > 100 µM | 0.0432 µM | > 100 µM | 0.0395 µM | > 100 µM | 0.0226 µM | 0.0799 µM | 3.92 µM | > 100 µM | 16.3 µM | > 100 µM |  |  | 0.0346 µM | 0.0523 µM | > 100 µM | 4.96 µM | > 100 µM | > 100 µM |
| S=c1[nH]c(=S)c2cc3ccccc3nc2[nH]1 | > 100 µM | > 100 µM | > 100 µM | > 100 µM | > 100 µM | > 100 µM | 31.1 µM | > 100 µM | 4.68 µM | > 100 µM | > 100 µM | > 100 µM | > 100 µM | > 100 µM |  | 26.8 µM | > 100 µM | > 100 µM | > 100 µM |  |
